{"source": "paper PMC11061835", "about": "“Elucidating the Mechanism of Metabolism of Cannabichromene by Human Cytochrome P450s” (Journal of Natural Products, 2024)", "key": {"CYP3A4": {"target": "CYP3A4 (Homo sapiens, UniProt P08684)", "sequence (P08684 whole entry)": "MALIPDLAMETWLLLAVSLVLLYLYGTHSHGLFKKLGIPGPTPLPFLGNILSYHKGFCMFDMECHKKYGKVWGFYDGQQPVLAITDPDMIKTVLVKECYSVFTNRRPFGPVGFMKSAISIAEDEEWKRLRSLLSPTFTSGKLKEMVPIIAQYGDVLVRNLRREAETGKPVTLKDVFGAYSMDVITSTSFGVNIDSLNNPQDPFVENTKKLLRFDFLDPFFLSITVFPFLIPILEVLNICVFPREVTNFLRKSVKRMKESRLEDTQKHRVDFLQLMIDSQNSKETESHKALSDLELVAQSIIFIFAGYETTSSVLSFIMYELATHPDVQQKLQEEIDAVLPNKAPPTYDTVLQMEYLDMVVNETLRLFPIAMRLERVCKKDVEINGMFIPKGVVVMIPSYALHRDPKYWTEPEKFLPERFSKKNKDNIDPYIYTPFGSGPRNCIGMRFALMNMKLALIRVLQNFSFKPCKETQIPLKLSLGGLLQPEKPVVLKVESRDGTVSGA", "test": "Spectroscopic titration (Soret shift), CYP3A4", "type": "binding", "parameters": "His-tag; made in house; host or cells: E. coli DH-5α with pTGro7 plasmid", "conditions": "CYP3A4, absence of CPR", "method": "(§1) CBC binding to various CYPs was determined by analyzing the Soret shift from ∼417 to ∼390 nm. CBC (stock 10 mM) was dissolved in ethanol and titrated with different CYPs at room temperature. Buffer-exchanged CYP2J2, CYP2D6, CYP3A4, and CYP2C8 (concentrations of proteins were kept between 4 and 5 μM) were dissolved in 0.1 M phosphate buffer (pH = 7.4), and initial spectra were recorded from 200 to 800 nm with a prominent peak at 417 nm. The concentration of CBC was varied from 0 to 100 μM keeping the final concentration of substrate in EtOH not more than 1% in cuvette. 0–4 μL of stock CBC was added using a Hamilton syringe in both the sample and blank cuvettes. The mixture was incubated for 5 min at 37 °C, and absorbance spectra were recorded using a Cary Bio 300 UV–vis spectrophotometer (Agilent Technologies, Santa Clara, CA). To eliminate the background absorbance, we derived the final spectra by […]."}, "CYP2J2": {"target": "T1, CYP2J2 (Homo sapiens, UniProt P51589)", "T1 construct": "His-tag; made in house; host or cells: E. coli DH-5α with pTGro7 plasmid", "T1 sequence (P51589 1-502)": "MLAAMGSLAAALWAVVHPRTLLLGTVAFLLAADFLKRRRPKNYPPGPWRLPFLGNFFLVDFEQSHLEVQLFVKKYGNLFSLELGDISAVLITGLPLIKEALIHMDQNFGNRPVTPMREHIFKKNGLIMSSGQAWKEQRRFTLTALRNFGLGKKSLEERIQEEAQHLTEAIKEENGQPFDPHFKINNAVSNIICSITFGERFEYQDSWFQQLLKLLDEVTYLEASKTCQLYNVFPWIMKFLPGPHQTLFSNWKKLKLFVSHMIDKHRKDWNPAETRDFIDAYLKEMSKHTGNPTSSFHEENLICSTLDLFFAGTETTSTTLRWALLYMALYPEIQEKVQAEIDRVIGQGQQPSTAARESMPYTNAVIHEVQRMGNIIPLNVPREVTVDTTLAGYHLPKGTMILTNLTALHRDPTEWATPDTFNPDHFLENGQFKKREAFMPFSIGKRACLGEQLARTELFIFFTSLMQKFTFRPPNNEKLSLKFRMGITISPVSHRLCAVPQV", "test": "Spectroscopic titration (Soret shift), CYP2J2", "type": "binding", "conditions": "CYP2J2, absence of CPR", "method": "as §1"}, "TRPV1": {"system": "TRPV1", "parameters": "method as in PMID 30697147", "conditions": "read-out: agonism toward TRPV1; cited from earlier work"}, "[1]": {"target": "T2, CYP2J2 in the presence of CPR (Homo sapiens, UniProt P51589)", "T2 construct": "His-tag; made in house; host or cells: E. coli DH-5α with pTGro7 plasmid (CYP)", "T2 sequence (P51589 1-502)": "T1 sequence (P51589 1-502)", "T2 sequence (P16435 1-677 partner)": "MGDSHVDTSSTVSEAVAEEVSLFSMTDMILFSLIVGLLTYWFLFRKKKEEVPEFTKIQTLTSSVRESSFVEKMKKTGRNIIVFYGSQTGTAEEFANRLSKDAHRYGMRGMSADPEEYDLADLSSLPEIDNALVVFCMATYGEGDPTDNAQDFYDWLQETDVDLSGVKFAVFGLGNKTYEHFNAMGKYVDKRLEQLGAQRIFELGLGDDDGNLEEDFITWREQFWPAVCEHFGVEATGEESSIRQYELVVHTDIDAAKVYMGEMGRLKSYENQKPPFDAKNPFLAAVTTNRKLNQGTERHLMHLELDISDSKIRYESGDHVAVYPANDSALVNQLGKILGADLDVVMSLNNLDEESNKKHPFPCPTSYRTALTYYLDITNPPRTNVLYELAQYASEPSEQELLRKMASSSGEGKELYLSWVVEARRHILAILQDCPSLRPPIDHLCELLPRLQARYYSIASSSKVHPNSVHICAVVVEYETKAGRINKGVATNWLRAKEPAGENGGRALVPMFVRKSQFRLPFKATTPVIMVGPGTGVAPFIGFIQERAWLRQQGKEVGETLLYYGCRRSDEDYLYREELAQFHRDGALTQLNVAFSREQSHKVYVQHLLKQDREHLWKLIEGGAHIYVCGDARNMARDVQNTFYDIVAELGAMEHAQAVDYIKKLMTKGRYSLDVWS", "test": "Spectroscopic titration, CYP2J2–CPR complex", "type": "binding", "method": "For CBC titration to CYP–CPR complex, initially CYPs were dissolved in 400 μL of 0.1 M phosphate buffer (pH = 7.4) keeping the concentration between […]. Following this 50 μL of CPR (50 μM stock) was added to both cuvettes, and the final concentration of both of the proteins was 5–6 μM. Both proteins were initially mixed and incubated for 5 min followed by titration with CBC in the same process as mentioned above. The substrate-bound spectra were then subtracted from substrate-free spectra, and the extent of binding was analyzed using Origin Pro 2020."}}, "note": "Values joined by “and” are separate entries in the source; they are usually repeats but may differ in a detail not shown here. Equal entries are not always repeated."}
{"smiles": "CCCCCc1cc(O)c2c(c1)OC(C)(CCC=C(C)C)C=C2", "note": "(stereo not shown) [CBC, Cannabichromene]", "values": [{"measurement": "ΔAmax (spin state change due to heme perturbation)", "setting": "CYP3A4", "value": "0.11 ± 0.00 and ~0.11"}, {"measurement": "Kd", "setting": "CYP3A4; read-out: Kd(app)", "value": "9.57 µM and ~9.5 µM"}, {"measurement": "ΔAmax (spin state change due to heme perturbation)", "setting": "CYP2J2", "value": "0.04 ± 0.00 and ~0.04"}, {"measurement": "Kd", "setting": "CYP2J2; read-out: Kd(app)", "value": "3.06 µM and ~3 µM"}, {"measurement": "EC50", "setting": "TRPV1", "value": "< 10", "unit": "µM"}, {"measurement": "ΔAmax (spin state change due to heme perturbation)", "setting": "[1]", "value": "0.09 ± 0.00 and ~0.1"}, {"measurement": "Kd", "setting": "[1]; read-out: Kd(app)", "value": "1.19 µM and < 10 µM and ~1 µM"}]}
